Measured values from patent US20200140483A1, “USE OF Y PEPTIDE IN PREPARATION OF DRUG OR HEALTHCARE PRODUCT FOR LOWERING BLOOD PRESSURE” (priority 2017, published 2020).
Residues, ends and D or L forms follow the SMILES beside them.

Test system: SHR rats
Type: in vivo, rat
Description: Each group was intragastrically administrated a solution of a corresponding tested substance or ultrapure water, in a volume of 10 mL/kg body weight, once per day for 30 consecutive days. The blood pressure and heart rates of the animals were measured during the administration of the tested substance. The blood pressure was measured with an LE5002 noninvasive blood pressure meter.

N[C@@H](Cc1ccc(O)cc1)C(=O)N[C@@H](Cc1ccc(O)cc1)C(=O)O [YY-peptide] (H-Tyr-Tyr-OH; N-terminus and C-terminus assumed)
blood pressure (SHR rats, 10 mg/kg intragastric once per day, 7th day, model control 161±6): 157±7 | effect in lowering blood pressure (SHR rats, 10 mg/kg, 7th day): significant effect in lowering blood pressure | effect on body weight (rat, in vivo, 10 mg/kg): no obvious effect | effect on heart rates (rat, in vivo, 10 mg/kg): no obvious effect
